Results taken from publication PMC5814047, “Peptidic inhibitors of insulin-degrading enzyme with potential for dermatological applications discovered via phage display” (PLoS ONE, 2018).
“And” between values parts separate entries of the source, which are not always exact repeats. Equal values may be shown once. Read-outs that look alike come from different tables or passages of the source. Values belong to the compound of their own block, whether it stands above or below them. Ends that are not written are not given here.

Tests used:
MMP-7 = target: T1, MMP-7 (Homo sapiens, UniProt P09237); assay: MMP Inhibitor Profiling Kit, MMP-7; format: biochemical; conditions: MMP-7
T1 construct: purchased Enzo Life Sciences, Inc
T1 sequence (P09237 95-267): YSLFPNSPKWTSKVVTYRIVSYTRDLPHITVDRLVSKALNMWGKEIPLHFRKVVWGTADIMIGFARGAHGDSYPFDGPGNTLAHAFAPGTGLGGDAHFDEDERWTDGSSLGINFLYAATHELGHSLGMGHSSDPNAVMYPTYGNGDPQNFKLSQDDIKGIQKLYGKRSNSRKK
Description: IDE activity was quantified by monitoring the degradation of Mca-[…](Dnp) (FRET1, 5 μM), fluoresceinated and biotinylated amyloid ß-protein (FAßB; 500 nM) or recombinant human insulin (50 nM) in PBS supplemented with 0.05% BSA. FRET1 degradation was measured by changes in fluorescence (λex = 340 nm, λem = 420 nm); FAßB degradation was monitored by fluorescence polarization (λex = 488 nm, λem = 525 nm), as described; and insulin degradation was quantified by ELISA. In vitro activity assays incorporated recombinant human IDE (1 nM) purified from bacteria. For quantitation of insulin degradation in primary murine skin fibroblasts, cells (1 x 10^5/well) were plated in 96-well plates and maintained in DMEM supplemented with 10% fetal bovine serum (FBS), 2mM glutamine, penicillin and streptomycin. After addition of insulin (10 nM or 100 nM), samples of conditioned medium were removed daily and quickly frozen, then insulin levels were quantified in parallel by ELISA according to manufacturer’s recommendations (Crystal Chem, Downers Grove, IL, USA). Assessment of the activity of P12-3A against a variety of matrix-metalloproteases was conducted using the Matrix Metalloproteinase (MMP) Inhibitor Profiling Kit, Fluorometric RED (Enzo Life Sciences, Inc., Farmingdale, NY, USA) according to manufacturer’s recommendations using the broad-spectrum MMP inhibitor, NNGH, as a positive control. […]

[1] = test system: multiple matrix-metalloproteases (MMPs); assay: Matrix Metalloproteinase (MMP) Inhibitor Profiling Kit, Fluorometric RED; format: biochemical; design: % activity relative to DMSO-only controls, single runs / % activity relative to DMSO-only controls, Mean: concentration or dose not given beside the values
Description: IDE activity was quantified by monitoring the degradation of Mca-[…](Dnp) (FRET1, 5 μM), fluoresceinated and biotinylated amyloid ß-protein (FAßB; 500 nM) or recombinant human insulin (50 nM) in PBS supplemented with 0.05% BSA. FRET1 degradation was measured by changes in fluorescence (λex = 340 nm, λem = 420 nm); FAßB degradation was monitored by fluorescence polarization (λex = 488 nm, λem = 525 nm), as described; and insulin degradation was quantified by ELISA. In vitro activity assays incorporated recombinant human IDE (1 nM) purified from bacteria. For quantitation of insulin degradation in primary murine skin fibroblasts, cells (1 x 10^5/well) were plated in 96-well plates and maintained in DMEM supplemented with 10% fetal bovine serum (FBS), 2mM glutamine, penicillin and streptomycin. After addition of insulin (10 nM or 100 nM), samples of conditioned medium were removed daily and quickly frozen, then insulin levels were quantified in parallel by ELISA according to manufacturer’s recommendations (Crystal Chem, Downers Grove, IL, USA). Assessment of the activity of P12-3A against a variety of matrix-metalloproteases was conducted using the Matrix Metalloproteinase (MMP) Inhibitor Profiling Kit, Fluorometric RED (Enzo Life Sciences, Inc., Farmingdale, NY, USA) according to manufacturer’s recommendations using the broad-spectrum MMP inhibitor, NNGH, as a positive control.
Supplementary file pone.0193101.s004.tif: S4 Fig Selectivity of P12-3A for IDE vis-à-vis other proteases. Activity of P12-3A (100 μM) against (A) multiple matrix-metalloproteases (MMPs) and (B) multiple peptidases of different protease classes. […] Data are mean ± SD, n = 8–16 per group. P<0.05 by 2-tailed Student’s t-test. […] See Materials and Methods for details. NEP, neprilysin; mCatD, murine cathepsin D; hCatD, human cathepsin D. (TIF) Click here for additional data file.

IDE [2] = target: T2, IDE (Homo sapiens, UniProt P14735); design: method as in PMID 24847884; conditions: read-out: IC50 against insulin; cited from earlier work
T2 construct: made in house; host or cells: bacteria
T2 sequence (P14735 1-1019): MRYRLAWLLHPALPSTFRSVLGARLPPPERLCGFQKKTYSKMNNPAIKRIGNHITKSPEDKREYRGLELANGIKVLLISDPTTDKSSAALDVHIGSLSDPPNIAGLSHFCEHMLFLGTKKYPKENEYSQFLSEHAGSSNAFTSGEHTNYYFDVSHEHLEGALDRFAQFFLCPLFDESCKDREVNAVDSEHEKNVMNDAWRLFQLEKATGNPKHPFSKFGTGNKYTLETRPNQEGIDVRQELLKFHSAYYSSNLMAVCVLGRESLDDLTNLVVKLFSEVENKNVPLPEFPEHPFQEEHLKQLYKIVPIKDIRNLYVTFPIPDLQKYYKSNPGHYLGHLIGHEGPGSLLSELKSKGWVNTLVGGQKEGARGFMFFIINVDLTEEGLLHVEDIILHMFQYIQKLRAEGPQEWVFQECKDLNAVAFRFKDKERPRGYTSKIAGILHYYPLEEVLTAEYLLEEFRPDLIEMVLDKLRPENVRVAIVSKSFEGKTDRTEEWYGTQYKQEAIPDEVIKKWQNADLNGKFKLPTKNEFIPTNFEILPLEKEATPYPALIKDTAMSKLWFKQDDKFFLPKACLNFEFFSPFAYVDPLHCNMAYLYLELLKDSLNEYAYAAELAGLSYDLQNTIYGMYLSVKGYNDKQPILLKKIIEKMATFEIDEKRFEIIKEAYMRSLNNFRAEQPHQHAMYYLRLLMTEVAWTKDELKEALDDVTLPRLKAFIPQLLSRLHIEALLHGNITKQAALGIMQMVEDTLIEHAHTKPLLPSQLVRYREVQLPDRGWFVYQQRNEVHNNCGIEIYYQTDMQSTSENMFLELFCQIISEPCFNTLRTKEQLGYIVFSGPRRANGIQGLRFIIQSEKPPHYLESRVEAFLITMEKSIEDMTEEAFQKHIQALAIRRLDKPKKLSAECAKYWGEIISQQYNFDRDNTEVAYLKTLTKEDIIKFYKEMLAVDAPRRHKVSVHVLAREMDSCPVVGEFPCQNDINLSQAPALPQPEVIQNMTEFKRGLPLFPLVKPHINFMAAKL

IDE [3] = target: T2, IDE; assay: Vulnerability of peptides to degradation by IDE: 0 vs 4 h pre-incubation, then FRET1 assay; format: biochemical; conditions: for IC50: FRET1 assay
Description: IDE activity was quantified by monitoring the degradation of Mca-[…](Dnp) (FRET1, 5 μM), fluoresceinated and biotinylated amyloid ß-protein (FAßB; 500 nM) or recombinant human insulin (50 nM) in PBS supplemented with 0.05% BSA. […] In vitro activity assays incorporated recombinant human IDE (1 nM) purified from bacteria. For quantitation of insulin degradation in primary murine skin fibroblasts, cells (1 x 10^5/well) were plated in 96-well plates and maintained in DMEM supplemented with 10% fetal bovine serum (FBS), 2mM glutamine, penicillin and streptomycin. After addition of insulin (10 nM or 100 nM), samples of conditioned medium were removed daily and quickly frozen, then insulin levels were quantified in parallel by ELISA according to manufacturer’s recommendations (Crystal Chem, Downers Grove, IL, USA). Assessment of the activity of P12-3A against a variety of matrix-metalloproteases was conducted using the Matrix Metalloproteinase (MMP) Inhibitor Profiling Kit, Fluorometric RED (Enzo Life Sciences, Inc., Farmingdale, NY, USA) according to manufacturer’s recommendations using the broad-spectrum MMP inhibitor, NNGH, as a positive control.

IDE [4] = target: T2, IDE; assay: biochemical; conditions: for IC50: insulin ELISA assay, dose-response
Method in brief: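 Bacterially expressed recombinant human IDE (1 nM) in PBS with 0.05% BSA. Substrates: FRET1 (5 μM; fluorescence, ex 340/em 420 nm), fluoresceinated biotinylated amyloid β-protein (500 nM; fluorescence polarization, ex 488/em 525 nm), or recombinant human insulin (50 nM; ELISA).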

IDE [5] = target: T2, IDE; assay: biochemical; conditions: for IC50: dose-response, FRET1
Method in brief: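 Recombinant human IDE (1 nM, bacterially expressed) degraded FRET1 substrate (5 μM), fluoresceinated biotinylated amyloid β (500 nM) or human insulin (50 nM) in PBS with 0.05% BSA. Peptides tested included N-acetylated and C-amidated variants.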

Compound: COc1ccc(S(=O)(=O)N(CC(=O)NO)CC(C)C)cc1 [NNGH, reference compound]
% activity relative to DMSO-only controls, Mean (MMP-7): 49.4% | % activity relative to DMSO-only controls, Mean ([1]; MMP-1): 1.0% | % activity relative to DMSO-only controls, Mean ([1]; MMP-2): 0.122% | % activity relative to DMSO-only controls, Mean ([1]; MMP-3): -1.2% | % activity relative to DMSO-only controls, Mean ([1]; MMP-8): 5.1% | % activity relative to DMSO-only controls, Mean ([1]; MMP-9): 4.0% | % activity relative to DMSO-only controls, Mean ([1]; MMP-12): 1.9% | % activity relative to DMSO-only controls, Mean ([1]; MMP-13): 6.5% | % activity relative to DMSO-only controls, Mean ([1]; MMP-14): 24% | % activity relative to DMSO-only controls, Mean ([1]; MMP-19): 38% | inhibition by positive control, MMPs ([1]; NNGH positive control, P< 0.01): significant inhibition

Compound: NCCCC[C@@H]1NC(=O)/C=C/C(=O)N[C@H](C(N)=O)CCCCNC(=O)[C@@H](Cc2ccc(C(=O)c3ccccc3)cc2)NC(=O)[C@H](CC2CCCCC2)NC1=O [6bK]
IC50 (IDE [2]): ~0.1 µM

Ki (IDE [3]; 4-hr incubation, Cheng-Prusoff from IC50, FRET1 KM 10 uM, substrate 5 uM): 131 µM | remaining activity at 0.12207 µM (IDE [3]; 4 h, 4-hr incubation, Cmpd 0.12207 uM, relative to DMSO-only controls, individual runs, read-out: Percent Activity (normalized initial velocity of FRET1 hydrolysis)): 90.2% | remaining activity at 0.488281 µM (IDE [3]; 4 h, 4-hr incubation, Cmpd 0.488281 uM, relative to DMSO-only controls, individual runs, read-out: Percent Activity (normalized initial velocity of FRET1 hydrolysis)): 82.8% | remaining activity at 1.95312 µM (IDE [3]; 4 h, 4-hr incubation, Cmpd 1.95312 uM, relative to DMSO-only controls, individual runs, read-out: Percent Activity (normalized initial velocity of FRET1 hydrolysis)): 80.5% | remaining activity at 7.8125 µM (IDE [3]; 4 h, 4-hr incubation, Cmpd 7.8125 uM, relative to DMSO-only controls, individual runs, read-out: Percent Activity (normalized initial velocity of FRET1 hydrolysis)): 70.1% | remaining activity at 31.25 µM (IDE [3]; 4 h, 4-hr incubation, Cmpd 31.25 uM, relative to DMSO-only controls, individual runs, read-out: Percent Activity (normalized initial velocity of FRET1 hydrolysis)): 51.8% | remaining activity at 125 µM (IDE [3]; 4 h, 4-hr incubation, Cmpd 125 uM, relative to DMSO-only controls, individual runs, read-out: Percent Activity (normalized initial velocity of FRET1 hydrolysis)): 36.3% | remaining activity at 500 µM (IDE [3]; 4 h, 4-hr incubation, Cmpd 500 uM, relative to DMSO-only controls, individual runs, read-out: Percent Activity (normalized initial velocity of FRET1 hydrolysis)): 9.02% | IC50 (IDE [3]; 0-hr incubation, mean of runs, read-out: IC50s, Mean): 61.4 µM | IC50 (IDE [3]; 4-hr incubation, individual replicates, read-out: IC50s): 200 µM and 193 µM | IC50 (IDE [3]; 4-hr incubation, mean of 2 replicates, read-out: IC50s, Mean): 197 µM | IC50 (IDE [4]; Replicates 1-3, read-out: IC50s, individual replicates): 20.6 µM and 9.35 µM and 12.2 µM | IC50 (IDE [4]; N=3, read-out: IC50s, Mean): 14 µM | Ki (IDE [4]; substrate recombinant human insulin 50 nM, Ki from IC50 with the Cheng-Prusoff equation): 7 ± 1.7 µM | Ki (IDE [5]; Cheng-Prusoff, KM 10 uM, substrate concentration 5 uM, read-out: Ki values, Mean): 40.9 µM | IC50 (IDE [5]; individual runs, read-out: IC50s, Run 1-6): 52.2 µM and 51.3 µM and 80.5 µM | IC50 (IDE [5]; read-out: IC50s, Mean): 61.4 µM | IC50 <500 uM? (IDE [5]; initial test at 500 uM): YES | remaining activity at 500 µM (IDE [5]; judged as IC50 <100 uM?, individual replicates, read-out: Percent activity at 500 uM, Replicate 1-4): 32.1% | Ki (IDE [5]; substrate FRET1 5 μM, Ki from IC50 with the Cheng-Prusoff equation, read-out: Ki FRET1): 41 ± 6.4 µM
Compound: VHWDFRQW-NH2 [P12-1B]
